# Laboratory results reported in PubChem BioAssay AID651648 (Sanford-Burnham Center for Chemical Genomics, 2012).
# The source made the active and inactive calls. The rule behind the calls is not given here.
# Target: CRF-binding protein / CRF-R2 receptor complex (human)
# Test: CRF-BP/CRF-R2 complex agonists, SAR follow-up, cell-based, 384-well (AID 651648)
# Conditions: cells expressing CRF-BP/CRF-R2 complex, agonist read-out
row,SMILES,EC50
1,COc1ccc(C(=O)CSc2nnn(-c3cccc(NC(C)=O)c3)n2)cc1,> 20 µM (inactive)
2,COc1ccc(CCn2c(C(C)C)nc3c(c(=O)c4ccccc4n3C)c2=O)cc1,> 20 µM (inactive)
3,O=C(O)c1cc(Cl)ccc1-c1ccc(/C=C/c2cc(C(F)(F)F)[nH]c(=O)n2)o1,5.43 µM
4,CCOC(=O)c1cc2ccccc2n1CCN(CC)CC,> 20 µM (inactive)
5,CC1(C)CSC(=NCc2ccccc2)N1,7.83 µM
6,O=C(CC1CCCCC1)c1c(O)c2ccccc2oc1=O,5.68 µM
7,Cc1ccc2oc(=O)c(/C=C(\O)c3sc(C)nc3C)nc2c1,> 20 µM (inactive)
8,CCOC(=O)c1sc(NC(=O)c2cc(-c3ccccc3)nc3ccccc23)c(C#N)c1C,> 20 µM (inactive)
9,CC(=O)Nc1ccc(Sc2ncccc2C(=O)Nc2cccc(OC(F)(F)F)c2)cc1,> 20 µM (inactive)
10,COc1ccc(C)cc1N(CC(=O)N1CCOCC1)S(=O)(=O)c1ccccc1,10.7 µM
11,CCOc1ccc(N(CC(=O)N2CCOCC2)S(=O)(=O)c2ccc(SC)cc2)cc1,> 20 µM (inactive)
12,CCOc1ccccc1N(CC(=O)N1CCOCC1)S(=O)(=O)c1ccc(F)cc1,3.78 µM
13,CCOc1ccccc1N(CC(=O)N1CCCC1)S(=O)(=O)c1ccc(SC)cc1,> 20 µM (inactive)
14,CCOc1ccccc1N(CC(=O)N1CCOCC1)S(=O)(=O)c1ccc(OC)cc1OC,> 20 µM (inactive)
15,CSCCC(NC(=O)c1ccco1)C(=O)OC(C)C(=O)NC(=O)NC1CCCCC1 (stereo not drawn),1.61 µM
16,O=C1Nc2ccccc2N(O)N1c1cc(-c2cccc(Cl)c2)no1,> 20 µM (inactive)
17,CCOc1ccc(N(CC(=O)N2CCOCC2)S(=O)(=O)c2ccc(OC)cc2)cc1,> 20 µM (inactive)
18,CCOc1ccccc1N(CC(=O)N1CCCCCC1)S(=O)(=O)c1ccc(SC)cc1,> 20 µM (inactive)
19,O=C(CCn1c2c(c3ccccc31)CCCC2)NNC(=O)c1ccccc1C(=O)O,> 20 µM (inactive)
20,CCOc1cccc(N(CC(=O)N2CCOCC2)S(=O)(=O)c2ccc(OC)cc2)c1,> 20 µM (inactive)
21,CCc1ccccc1N(CC(=O)N1CCOCC1)S(=O)(=O)c1ccc(C)cc1,> 20 µM (inactive)
22,Cc1nc2c(c(=O)c3ccccc3n2C)c(=O)n1C1CCCCCC1,> 20 µM (inactive)
23,COc1ccc(S(=O)(=O)N(CC(=O)N2CCOCC2)c2ccccc2OC)cc1,> 20 µM (inactive)
24,CC(Oc1ccc(Br)cc1)C(=O)N1CCc2ccccc21 (stereo not drawn),> 20 µM (inactive)

row,SMILES,EC50
1,CCOC(=O)N1CCN(C(=O)c2c[nH]c3ccc(S(=O)(=O)N(C)c4cccc(C)c4)cc3c2=O)CC1,2.51 µM
2,CCOc1ccc(N(CC(=O)N2CCOCC2)S(=O)(=O)c2ccc(C)cc2)cc1,> 20 µM (inactive)
3,Cc1cc(S(=O)(=O)c2cc3ccc(O)c(C)c3oc2=O)ccc1F,2.29 µM
4,Cc1ccc(S(=O)(=O)NCC(=O)N(CC(=O)NCc2ccco2)Cc2ccccc2)cc1,6.7 µM
5,O=C(Nc1ccc(SC(F)F)cc1)c1ccc2c(=O)n3c(nc2c1)CCC3,> 20 µM (inactive)
6,O=C(Nc1cc(Cl)cc(Cl)c1)c1coc(=O)c(Br)c1,> 20 µM (inactive)
7,O=C(Nc1cc(S(=O)(=O)N2CCCCC2)ccc1O)c1ccccc1NS(=O)(=O)c1ccc(F)c(F)c1,> 20 µM (inactive)
8,Cc1cc(=O)[nH]c(SCC(=O)Nc2ccc(Br)cc2)c1C#N,> 20 µM (inactive)
9,COc1ccccc1N(CC(=O)N1CCOCC1)S(=O)(=O)c1ccc(C)cc1,> 20 µM (inactive)
10,CCC1CCCCN1Cc1ccc(OC)c(C)c1 (stereo not drawn),> 20 µM (inactive)
11,Cc1sc(NC(=O)C2CCCCC2C(=O)O)c(C(N)=O)c1-c1ccc(C(C)(C)C)cc1 (stereo not drawn),9.52 µM
12,O=c1c(/C=C(\O)c2ccc(F)cc2)nc2ccccc2n1-c1ccccc1,9.91 µM
13,CCCCCn1nc(-c2ccccc2)c2nc3ccccc3nc21,3.16 µM
14,CC1(C(=O)NC(=S)NNC(=O)c2ccncc2)CCCCC1,5.94 µM
15,CC(=O)Nc1ccc(Sc2ncccc2C(=O)Nc2ccccc2Br)cc1,> 20 µM (inactive)
16,CC1(C)C(=O)OC(c2cccn2-c2ccc([N+](=O)[O-])cc2)C2(CCCCC2)C1=O (stereo not drawn),> 20 µM (inactive)
17,CCOc1ccccc1N(CC(=O)N1CCOCC1)S(=O)(=O)c1cccc(OC)c1,3.67 µM
18,COc1ccc(NC(=O)c2cccnc2Sc2ccc(NC(C)=O)nc2)cc1,> 20 µM (inactive)
19,O=C(O)c1ccc(COc2ccccc2C=C2C(=O)c3ccccc3C2=O)cc1,> 20 µM (inactive)
20,Oc1ccc2ccccc2c1CN1CCCCC1,> 20 µM (inactive)
21,CCNC(=S)NNC(=O)c1cccn(Cc2ccc(Cl)cc2Cl)c1=O,> 20 µM (inactive)
22,CCOc1ccc(S(=O)(=O)N(CC(=O)N2CCOCC2)c2ccccc2)cc1,> 20 µM (inactive)
23,CC(=O)Nc1ccc(Sc2ncccc2C(=O)Nc2cc(Cl)cc(Cl)c2)cn1,> 20 µM (inactive)
24,Cc1[nH]n(-c2cccc(Cl)c2)c(=O)c1-c1ccc(Cl)cc1,> 20 µM (inactive)

row,SMILES,EC50
1,CCOc1ccc(N(CC(=O)N2CCOCC2)S(=O)(=O)c2ccccc2)cc1,> 20 µM (inactive)
2,CC(=O)Nc1ccc(Sc2ncccc2C(=O)Nc2ccc(N(O)O)cc2)cc1,1.96 µM
3,Cc1ccc2nc(NCCC(=O)O)nc(-c3ccccc3)c2c1,> 20 µM (inactive)
4,Cc1cc(NC(=O)COC(=O)[C@H](Cc2ccccc2)NC(=O)c2ccco2)no1,5.58 µM
5,CCOc1ccccc1N(CC(=O)N1CCOCC1)S(=O)(=O)c1ccccc1C#N,> 20 µM (inactive)
6,CC(=O)Nc1ccc(Sc2ccccc2C(=O)Nc2ccc(F)cc2)cn1,> 20 µM (inactive)
7,Cc1c(-n2cc(C(=O)c3ccccc3O)cc(C#N)c2=O)c(=O)n(-c2ccccc2)n1C,> 20 µM (inactive)
8,CCOc1ccccc1N(CC(=O)N1CCOCC1)S(=O)(=O)c1cc(C(=O)OC)ccc1OC,> 20 µM (inactive)
9,O=C(COC(=O)[C@H](Cc1ccccc1)NC(=O)c1ccco1)NCc1ccccc1,11.3 µM
10,CCOc1ccccc1N(CC(=O)N1CCOCC1)S(=O)(=O)c1ccccc1,4.77 µM
11,CC(=O)Nc1ccc(Sc2ncccc2C(=O)Nc2ccc(C(F)(F)F)cc2)cc1,> 20 µM (inactive)
12,O=c1c(/C=C(\O)c2ccccc2)nc2ccccc2n1-c1ccccc1,8.1 µM
13,Cc1cccc(Oc2ccc(NC(=O)c3ccccc3C(=O)O)cc2)c1C,> 20 µM (inactive)
14,CCOc1ccccc1N(CC(=O)N1CCOCC1)S(=O)(=O)c1ccc(C#N)cc1,> 20 µM (inactive)
15,CCOc1ccccc1N(CC(=O)N1CCOCC1)S(=O)(=O)c1ccc(SC)cc1,1.47 µM
16,CSCCC(NC(=O)c1ccco1)C(=O)N1CC=C(c2ccccc2)CC1 (stereo not drawn),13.5 µM
17,CCOc1ccccc1N(CC(=O)N1CCOCC1)S(=O)(=O)c1ccc(Br)cc1,1.5 µM
18,COc1ccc(NC(=O)c2ccccc2Sc2ccc(NC(C)=O)nc2)cc1,> 20 µM (inactive)
19,CCOc1ccccc1N(CC(=O)N1CCOCC1)S(=O)(=O)c1ccc(OC)cc1,5.85 µM
20,CC(=O)Nc1ccc(Sc2ncccc2C(=O)Nc2ccccc2F)cc1,> 20 µM (inactive)
21,CC(C)c1nc2c(c(=O)c3ccccc3n2C)c(=O)n1CCc1ccccc1,7.24 µM
22,CCOc1ccccc1N(CC(=O)N1CCOCC1)S(=O)(=O)c1ccc(C)cc1,2.84 µM
23,CCOc1ccccc1N(CC(=O)N1CCC(C)CC1)S(=O)(=O)c1ccc(SC)cc1,> 20 µM (inactive)
24,Cc1ccccc1N(CC(=O)N1CCOCC1)S(=O)(=O)c1ccc(Cl)cc1,> 20 µM (inactive)

row,SMILES,EC50
1,CCOc1ccccc1N(CC(=O)N1CCOCC1)S(=O)(=O)c1ccc(Br)cc1OC(F)(F)F,7.02 µM
2,CC(=O)Nc1ccc(Sc2ncccc2C(=O)Nc2ccc(OC(F)(F)F)cc2)cn1,5.32 µM
3,O=C(Nc1ccc(Br)cc1Cl)c1ccc2c(=O)n3c(nc2c1)CCC3,> 40 µM (inactive)
4,CCOc1cccc(N(CC(=O)N2CCOCC2)S(=O)(=O)c2ccccc2)c1,> 20 µM (inactive)
5,CCc1nc2c(c(=O)c3ccccc3n2C)c(=O)n1C1CCCCCC1,4.68 µM
6,CCOc1ccccc1N(CC(=O)N1CCOCC1)S(=O)(=O)c1cccc(F)c1,4.77 µM
7,COc1ccc(C)cc1NC(=O)c1cccnc1Sc1ccc(NC(C)=O)cc1,> 20 µM (inactive)
8,COc1ccccc1N(CC(=O)N1CCOCC1)S(=O)(=O)c1ccccc1,> 20 µM (inactive)
9,CC(=O)Nc1cccc(OC(=O)c2ccoc2C)c1,9.4 µM
10,CCOc1ccccc1N(CC(=O)N1CCCCC1)S(=O)(=O)c1ccc(SC)cc1,0.473 µM
11,CC(=O)Nc1ccc(Sc2ncccc2C(=O)Nc2cc(C)cc(C)c2)cn1,> 20 µM (inactive)
12,CC(=O)Nc1ccc(Sc2ncccc2C(=O)Nc2ccc(F)cc2)cn1,0.953 µM
13,O=C(O)CCNc1nc(-c2ccccc2)c2cc(Br)ccc2n1,> 20 µM (inactive)
14,CCOc1ccccc1N(CC(=O)N1CCOCC1)S(=O)(=O)c1cccc(Br)c1,1.45 µM
15,O=[N+]([O-])c1ccc(O)c(Nc2ncnc3ccc(Br)cc23)c1,> 20 µM (inactive)
16,CC(=O)Nc1ccc(Sc2ncccc2C(=O)Nc2ccc(Br)cc2)cc1,15.5 µM
17,N#Cc1c(-c2ccccc2)cc(-c2ccccc2)nc1SCC(=O)NCC(=O)O,> 20 µM (inactive)
18,CCCCCCc1cc2cc(C(=O)NCc3ccccc3)c(=N)oc2cc1O,> 20 µM (inactive)
19,CC(=O)Nc1ccc(Sc2ncccc2C(=O)Nc2ccc(F)cc2)cc1,> 20 µM (inactive)
20,O=C(NC(=O)c1ccccc1O)c1ccc(C(F)(F)F)cc1,13.6 µM
21,COc1ccc(CN2CCCCC2C)cc1C (stereo not drawn),> 20 µM (inactive)
